Measurements published in US6451356B1, “Antibacterial composition comprising oenostacin from oenothera biennis” (Council of Scientific and Industrial Research, priority 2000, dated 2002).
Converted amounts (≈) assume the structure as drawn. Like-named read-outs stand apart in the source and are kept apart here.

Columns and labels:
Assay type in all cases: cell-based
[1] = tested on: Streptococcus mutans; assay: MIC by two-fold broth dilution, S. mutans
Experimental: (§1) In order to identify the antibacterial chemical entities present in the EtOAc fraction 3 and 4 of O.biennis roots, the fractions are further run on silica gel column chromatography again eluting with varying proportions of chloroform and MeOH. Aliquots of eluate are run on TLC to check for the desired purity of the compound. The pure compounds thus obtained are analyzed for their antibacterial properties by two-fold broth dilution method to determine the minimal inhibitory concentration (MIC). […] The compounds CIM791 and 790 are identified as 3,5-dihydroxy-4-pent-4′-enoyl-1′-oxymethylbenzoic acid (Oenostacin) and gallic acid, respectively, using NMR spectral data.

[2] = tested on: Staphylococcus epidermidis; assay: MIC by two-fold broth dilution, S. epidermidis; set-up: Minimal inhibitory concentration (MIC) S. epidermidis: unit not given here
Experimental: CIM 791 is tested for its minimal inhibitory concentration, which is a measure of the growth inhibitory potential of the compound and determined against S. epidermidis by two-fold broth dilution technique.
as §1

[3] = tested on: Pseudomonas aeruginosa; assay: MIC by two-fold broth dilution, P. aeruginosa; conditions: Table 5, read-out: Minimal inhibitory concentration (MIC) P. aeruginosa
Experimental: as §1

SMILES | MIC ([1]; Table 5, read-out: Minimal inhibitory concentration (MIC) S. mutans) [µg/mL] | activity against Staphylococcus epidermidis (in words) [2] | MIC ([2]; Staphylococcus epidermidis, read-out: MIC against Staphylococcus epidermidis) [µg/mL] | Minimal inhibitory concentration (MIC) S. epidermidis ([2]; Table 5) | MIC ([1]; read-out: MIC against Streptococcus mutans) [µg/mL] | MIC [3] [µg/mL]
COC(=O)CC/C=C/c1c(O)cc(C(=O)O)cc1O [Oenostacin, 3,5-dihydroxy-4-pent-4′-enoyl-1′-oxymethylbenzoic acid] | 1250 (≈ 4.69 mM) | strong activity | 31.5 (≈ 0.118 mM) | 31.5 |  | 
O=C(O)c1cc(O)c(O)c(O)c1 [Gallic acid, gallic acid] |  |  |  |  | 625 (≈ 3.67 mM) | 1250 (≈ 7.35 mM)
